Reference: ChEMBL document CHEMBL1949666, “Inhibition of human monoamine oxidase A and B by 5-phenoxy 8-aminoquinoline analogs” (Bioorg Med Chem Lett, 2012)

What was measured:
[1] = target: T1, Amine oxidase [flavin-containing] B (Homo sapiens, UniProt P27338); assay: Inhibition of human recombinant MAOB assessed as conversion of kynuramine to 4-hydroxyquinoline preincubated for 15 mins by fluorimetric assay
T1 sequence (P27338 whole entry): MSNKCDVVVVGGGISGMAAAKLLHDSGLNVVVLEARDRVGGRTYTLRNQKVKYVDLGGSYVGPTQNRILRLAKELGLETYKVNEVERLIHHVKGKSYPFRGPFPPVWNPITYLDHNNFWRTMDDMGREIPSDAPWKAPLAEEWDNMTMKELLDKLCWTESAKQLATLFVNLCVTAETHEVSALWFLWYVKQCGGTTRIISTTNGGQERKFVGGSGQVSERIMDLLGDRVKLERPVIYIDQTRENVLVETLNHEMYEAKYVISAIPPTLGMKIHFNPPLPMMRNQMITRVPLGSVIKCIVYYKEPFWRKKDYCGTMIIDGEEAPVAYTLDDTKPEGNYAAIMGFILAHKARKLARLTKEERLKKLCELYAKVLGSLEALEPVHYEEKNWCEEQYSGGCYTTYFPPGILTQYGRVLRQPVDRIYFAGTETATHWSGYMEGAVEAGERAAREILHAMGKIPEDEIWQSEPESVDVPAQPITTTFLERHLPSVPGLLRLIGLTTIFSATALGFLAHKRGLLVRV

Homo sapiens = species on record: Homo sapiens; assay: Selectivity index, ratio of IC50 for human recombinant MAOA to IC50 for human recombinant MAOB
[2] = target: T2, Amine oxidase [flavin-containing] A (Homo sapiens, UniProt P21397); assay: Inhibition of human recombinant MAOA assessed as conversion of kynuramine to 4-hydroxyquinoline preincubated for 15 mins by fluorimetric assay
T2 sequence (P21397 whole entry): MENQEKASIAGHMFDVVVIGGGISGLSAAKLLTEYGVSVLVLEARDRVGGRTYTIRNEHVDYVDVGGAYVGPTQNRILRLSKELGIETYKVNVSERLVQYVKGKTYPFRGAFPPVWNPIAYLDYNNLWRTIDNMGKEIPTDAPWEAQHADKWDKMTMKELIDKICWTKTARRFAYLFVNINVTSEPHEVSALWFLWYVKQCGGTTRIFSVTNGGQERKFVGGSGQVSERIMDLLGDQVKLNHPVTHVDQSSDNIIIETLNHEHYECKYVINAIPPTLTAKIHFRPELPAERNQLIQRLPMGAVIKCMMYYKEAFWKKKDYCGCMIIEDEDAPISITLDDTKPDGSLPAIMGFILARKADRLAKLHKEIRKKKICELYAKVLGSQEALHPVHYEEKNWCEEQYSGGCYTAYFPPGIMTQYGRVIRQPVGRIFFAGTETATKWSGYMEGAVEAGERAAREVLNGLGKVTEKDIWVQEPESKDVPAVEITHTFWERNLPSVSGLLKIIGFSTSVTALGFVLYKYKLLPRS

Row | SMILES | IC50 [1] | Ratio IC50 (Homo sapiens) | IC50 [2]
1 | COc1cc(NC(C)CCCN)c2ncccc2c1 (stereo unspecified) [PRIMAQUINE] | 94.5 µM | 0.8 | –
2 | COc1cc(NC(C)CCCN)c2nccc(C)c2c1Oc1ccc(F)c(F)c1 (stereo unspecified) | 3.65 µM | 6.22 | 22.7 µM
3 | COc1cc(NC(C)CCCN)c2nccc(C)c2c1Oc1ccc(F)cc1 (stereo unspecified) | 33.4 µM | 0.29 | 9.7 µM
4 | COc1cc(NC(C)CCCN)c2nccc(C)c2c1Oc1cccc(F)c1 (stereo unspecified) | 10.8 µM | 0.3 | 3.22 µM
